According to ChEMBL document CHEMBL4706646, “Synthesis and evaluation of a collection of purine-like C-nucleosides as antikinetoplastid agents” (Eur J Med Chem, 2021):

Experiments:
[1] = Cytotoxicity against mouse primary macrophages assessed as reduction in cell viability; assay type: cell-based, Macrophage
[2] = system: Trypanosoma brucei brucei; experiment: Antitrypanosomal activity against Trypanosoma brucei brucei; assay type: functional, organism-based
[3] = system: Leishmania infantum; experiment: Antileishmanial activity against Leishmania infantum infected in mouse primary macrophages; assay type: functional, organism-based; conditions: Primary macrophage
[4] = system: Trypanosoma cruzi; experiment: Antitrypanosomal activity against Trypanosoma cruzi infected in human MRC-5 SV2 cells; assay type: functional, organism-based
[5] = Cytotoxicity against human MRC-5 SV2 cells assessed as reduction in cell viability; assay type: cell-based
[6] = system: Trypanosoma brucei rhodesiense; experiment: Antitrypanosomal activity against Trypanosoma brucei rhodesiense; assay type: functional, organism-based

Structure (SMILES)	CC50 [1] [µM]	IC50 [2] [µM]	IC50 [3] [µM]	IC50 [4] [nM]	CC50 [5] [µM]	IC50 [6] [µM]
Nc1ncnn2c([C@@H]3O[C@H](CO)[C@@H](O)[C@H]3O)ccc12	< 0.25	< 0.25	< 0.25	< 250	< 0.25	< 0.25
Nc1ncnn2c([C@@H]3O[C@H](CO)[C@@H](O)[C@H]3O)cc(-c3ccc(Cl)cc3)c12	5	3.89	236	540	10.8	3.71
O=c1[nH]cnn2c([C@@H]3O[C@H](CO)[C@@H](O)[C@H]3O)cnc12	> 64	0.5	3.17	600	> 64	3.01
Nc1ncnn2c([C@@H]3O[C@H](CO)[C@@H](O)[C@H]3O)cc(Br)c12	2	1.69	1.13	780	≥ 11.8	0.14
Nc1nccn2c([C@@H]3O[C@H](CO)[C@@H](O)[C@H]3O)cnc12	> 64	> 64	> 64	> 64000	> 64	0.81
Nc1ncnc2c([C@@H]3O[C@H](CO)[C@@H](O)[C@H]3O)cn(-c3ccc(Cl)c(F)c3)c12	> 64	40.3	> 64	1040	> 64	29
N#C[C@]1(c2ccc3c(N)ncnn23)O[C@H](CO)[C@@H](O)[C@H]1O	> 64	10.3	> 64	> 64000	> 64	1.77
N#C[C@@]1(c2cc(Br)c3c(N)ncnn23)O[C@H](CO)[C@@H](O)[C@H]1O	32	13	32.5	39300	11	1.58
Nc1ncnc2c([C@@H]3O[C@H](CO)[C@@H](O)[C@H]3O)cnn12	> 64	24.8	21.9	3810	9.32	33.8
O=c1[nH]cnn2c([C@@H]3O[C@H](CO)[C@@H](O)[C@H]3O)cc(Br)c12	> 64	30.9	> 64	> 64000	> 64	20
Nc1ncnn2c([C@@H]3O[C@H](CO)C[C@H]3O)cc(-c3ccc(Cl)cc3)c12	24	3.53	23.3	230	≥ 22.3	1.65
Nc1ncnn2c([C@@H]3O[C@H](CO)[C@@H](O)[C@H]3O)cc(-c3ccc(Cl)c(F)c3)c12	> 64	6.78	≥ 40.3	2450	≥ 40.3	5.98
O=c1[nH]cnn2c([C@@H]3O[C@H](CO)[C@@H](O)[C@H]3O)ccc12	> 64	3.53	5.66	7670	49.4	7.06
O=c1[nH]cnn2c([C@@H]3O[C@H](CO)C[C@H]3O)ccc12	> 64	> 64	> 64	> 64000	> 64	33.8
Nc1ncnc2c([C@@H]3O[C@H](CO)[C@@H](O)[C@H]3O)cn(-c3ccc(Br)cc3)c12	> 64	41.8	≥ 50.8	460	> 64	28.9
Nc1ncnn2c([C@@H]3O[C@H](CO)[C@@H](O)[C@H]3O)cnc12	32	< 0.25	5.15	620	1.41	2
Nc1ncnc2c([C@@H]3O[C@H](CO)[C@@H](O)[C@H]3O)cn(-c3ccc(Cl)cc3)c12	> 64	26.9	> 64	340	> 64	26.2
Nc1nccn2c([C@@H]3O[C@H](CO)C[C@H]3O)cnc12	> 64	> 64	> 64	> 64000	> 64	55.7
OC[C@H]1O[C@@H](c2cnn3c(O)ncnc23)[C@H](O)[C@@H]1O	> 64	17.2	34.2	10100	> 64	36.7
O=C(Cn1ccnc1[N+](=O)[O-])NCc1ccccc1 [BENZNIDAZOLE]	–	–	–	2020	–	–
N#C[C@@]1(c2ccc3c(N)ncnn23)O[C@H](CO)[C@@H](O)[C@H]1O [GS-441524]	> 64	8.91	> 64	> 64000	> 64	0.58
CCCCCCCCCCCCCCCCOP(=O)([O-])OCC[N+](C)(C)C [MILTEFOSINE]	–	–	7.47	–	–	–
Cc1ccc(C(=O)Nc2ccc(S(=O)(=O)O)c3cc(S(=O)(=O)O)cc(S(=O)(=O)O)c23)cc1NC(=O)c1cccc(NC(=O)Nc2cccc(C(=O)Nc3cc(C(=O)Nc4ccc(S(=O)(=O)O)c5cc(S(=O)(=O)O)cc(S(=O)(=O)O)c45)ccc3C)c2)c1 [SURAMIN]	–	–	–	–	–	0.04
